Measurements: patent US6632797B2, “Method of treating angiogenesis” (priority 1996, dated 2003)

Key:
[1] = tested on: phosphatidyl inositol 3′ kinase (PI 3′-kinase); assay: Interstitial fluid pressure (PIF) in rat hind paw, wortmannin-induced decrease; format: in vivo, Wistar Möller rats; settings: 5 μg in 0.1 ml intravenous before wortmannin
Description: The enzyme phosphatidyl inositol 3′ kinase (PI 3′-kinase) is implicated in a number of growth factor induced responses such as mitogenesis, chemotaxis, membrane ruffling and the balance between osteoclasts and osteoblasts. Furthermore it is known that inactivation of PI 3′ kinase leads to increased oedema formation expressed as a decrease of interstitial fluid pressure (PIF) in animal models.
An inhibitor of PI 3′ kinase such as wortmannin renders a decrease of PIF as a consequence of inactivation of PI 3′ kinase.
The measurements were performed on female Wistar Möller rats (200-250 g), anesthetized with pentobarbital (50 mg/kg i.p.).
PIF was measured on the dorsal side of the hind paw with sharpened glass capillarier (tip diameter 2-7 μm) filled with 0.5 M NaCl coloured with Evans Blue and connected to a serve-controlled counter pressure system. The punctures were performed through intact skin using a stereomicroscope. The pipette-tip was located 0.3-0.5 mm below the skin. Pressure measurements were made 2.5-3.0 mm from the center of injection. The normal transcapillary pressure gradient is about 0.5 mm Hg.
Three sets of experiments were performed with six animals in each set.
In the first set of experiment the vehicle for wortmannin, DMSO diluted in saline, 5 μl, was injected subdermally using a chromatography syringe. […]

[2] = target: T1, Fibroblast growth factor acidic (aFGF) (Homo sapiens, UniProt P05230); assay: aFGF/Matrigel-induced swelling (tumor-like matrix) in nude mice; format: in vivo, BALBc nude mice; settings: osmotic minipump, 0.4 g/ml, 14 days
T1 construct: purchased Sigma (USA)
Method: Fibroblast growth factor acidic (aFGF) from Sigma (USA), was diluted in a buffer, RPMI-1640 (Life Technologies, UK). 25 μg of aFGF was diluted in 125 μl buffer and 50 μl was transferred to a small Eppendorf tube. 150 μl of Matrigel® basement membrane matrix from Becton and Dickinson (UK) was added to the tube and the content was thoroughly mixed for 60 minutes. All equipment was sterilized by irradiation or autoclaving (115° C. in 10 minutes) before use and all procedures were performed at 7° C. The mixture was kept in an icebath before the animal experiment.
Ten female, specific pathogen free BALBc nude mice with a weight of 18-22 g were maintained in autoclaved type III makrolon cages with filter tops in horizontal air flow cabinets in a barrier unit equipped with HEPA filters. Autoclaved bedding, irradiated feed and sterile filtered water was used. Temperature and humidity was kept constant at 22±2° C., 65±5 RH.
When fibroblast growth factor (FGF) and Matrigel® is mixed and inovulated to nude mice, developments of a swelling process ressembling tumor begin to develop.
A portion of the mixture of Matrigel® and a FGF was inoculated subcutaneously by a 23 G needle in the right flank of the mice. Two days before all mice were surgically prepared with osmotic minipumps (Alzet, model 2002).
To another group of five mice saline was administered as a control group.

[3] = tested on: Nerve growth factors (NGFA from Vipera lebetina Venom and NGFB from Mouse Submaxillary glands); assay: Interaction between NGF and radioactive IP3, co-elution on Sephadex G-25 / Heparin-Sepharose columns; format: binding; settings: co-elution from Sephadex G-25, 50 mM Hepes pH 7.4
Method: The mixture was incubated for 1 hour at 4° C.
This type of column fractionate substances according to molecular weight.
The incubate was loaded on the column and was eluted with 50 mM Hepes in fractions of 0.4 ml each.
To further determine the interaction, the fractions with radioactivity and UV-absorbance were loaded on a Heparin-Sepharose CL-6B column (Pharmacia Biotech, Sweden) (volume 25 ml, height 20 cm). […] Elution was performed with 50 mM Hepes, pH 7.4 and each fraction of 1 ml was collected for determination of radioactivity and UV absorbance. A peak with radioactivity but without UV absorption was loaded on a similar Sephadex G-25 column as described above and was eluted with the same type of buffer. Maximum radioactivity was obtained in fraction number 13 i.e. in this case the substance with radioactivity was more retained on the column.

[4] = target: bovine brain clathrin assembly protein-2 (AP-2); assay: Binding to clathrin assembly protein-2, competition with tritiated inositoltetraphosphate; settings: competition with 10 nM tritiated inositoltetraphosphate, on ice, ten minutes
Method: The binding assay was done in a total volume of 100 μl buffer containing […] Na HEPES pH 7.1, […], […], 5 mg/ml IgG, 10 nM tritiated inositoltetraphosphate and 1.46 μg of AP-2. […] Incubation was carried out on ice for a period of ten minutes and then the protein was co-precipitated with IgG using 5% (w/w) polyethylene glycol and pelleted by centrifugation at […] for 10 minutes. The supernatants were aspirated, the pellets were wasted with 0.2 ml water and resuspended in 0.2 ml water and transferred to scintillation vials. 5.0 ml of cyto scint fluid was added to each vial and the radioactivity was measured.

T1 sequence (P05230 whole entry, species assumed): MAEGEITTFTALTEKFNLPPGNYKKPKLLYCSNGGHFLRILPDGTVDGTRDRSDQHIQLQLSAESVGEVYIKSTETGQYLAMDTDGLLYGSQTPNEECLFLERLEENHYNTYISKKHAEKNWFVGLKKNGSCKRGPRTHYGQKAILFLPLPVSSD

O=P(O)(O)OC1C(O)C(O)C(O)C(OP(=O)(O)O)C1OP(=O)(O)O [IP3, D-myo-inositol-1,2,6-trisphosphate]
effect of pretreatment on wortmannin-induced decrease in PIF [1]: abolished decrease in PIF | volume of the formed matrix ([2]; Day 1): 150 mm^3 | volume of the formed matrix ([2]; Day 4): 125 mm^3 | volume of the formed matrix ([2]; Day 5): 90 mm^3 | volume of the formed matrix ([2]; Day 6): 50 mm^3 | volume of the formed matrix ([2]; Day 7): 50 mm^3 | volume of the formed matrix ([2]; Day 8): 70 mm^3 | volume of the formed matrix ([2]; Day 9): 70 mm^3 | interaction between NGF and IP3 [3]: strong interaction | IC50 [4]: 600 ± 100 nM
